Assay results: publication PMC4319531 (Bioorganic & medicinal chemistry letters, 2014)

Experiments:
recombinant CE-2 = target: T1, recombinant CE-2 (Homo sapiens, UniProt O00748); assay: Incubation with purified recombinant CE-2; assay type: in vitro ADME; conditions: 10 μM, within 60 minutes at room temperature
T1 sequence (O00748 27-559): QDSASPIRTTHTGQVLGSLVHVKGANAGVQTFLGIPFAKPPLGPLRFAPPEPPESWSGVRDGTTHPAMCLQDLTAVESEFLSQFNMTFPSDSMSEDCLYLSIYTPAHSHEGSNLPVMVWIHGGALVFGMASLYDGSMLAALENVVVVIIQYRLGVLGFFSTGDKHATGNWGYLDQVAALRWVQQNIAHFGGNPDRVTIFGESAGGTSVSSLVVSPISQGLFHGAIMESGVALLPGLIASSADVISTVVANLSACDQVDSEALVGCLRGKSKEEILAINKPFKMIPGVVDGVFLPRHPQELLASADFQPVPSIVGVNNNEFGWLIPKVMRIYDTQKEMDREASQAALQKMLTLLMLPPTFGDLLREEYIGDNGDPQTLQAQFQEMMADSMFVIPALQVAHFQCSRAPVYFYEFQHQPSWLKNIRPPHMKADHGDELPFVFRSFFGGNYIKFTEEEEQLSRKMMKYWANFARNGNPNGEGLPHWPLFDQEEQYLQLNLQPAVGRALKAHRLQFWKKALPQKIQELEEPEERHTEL

recombinant CE-1 = target: T2, recombinant CE-1 (Homo sapiens, UniProt P23141); assay: Incubation with purified recombinant CE-1; assay type: in vitro ADME; conditions: 10 μM, within 60 minutes at room temperature
T2 sequence (P23141 18-567): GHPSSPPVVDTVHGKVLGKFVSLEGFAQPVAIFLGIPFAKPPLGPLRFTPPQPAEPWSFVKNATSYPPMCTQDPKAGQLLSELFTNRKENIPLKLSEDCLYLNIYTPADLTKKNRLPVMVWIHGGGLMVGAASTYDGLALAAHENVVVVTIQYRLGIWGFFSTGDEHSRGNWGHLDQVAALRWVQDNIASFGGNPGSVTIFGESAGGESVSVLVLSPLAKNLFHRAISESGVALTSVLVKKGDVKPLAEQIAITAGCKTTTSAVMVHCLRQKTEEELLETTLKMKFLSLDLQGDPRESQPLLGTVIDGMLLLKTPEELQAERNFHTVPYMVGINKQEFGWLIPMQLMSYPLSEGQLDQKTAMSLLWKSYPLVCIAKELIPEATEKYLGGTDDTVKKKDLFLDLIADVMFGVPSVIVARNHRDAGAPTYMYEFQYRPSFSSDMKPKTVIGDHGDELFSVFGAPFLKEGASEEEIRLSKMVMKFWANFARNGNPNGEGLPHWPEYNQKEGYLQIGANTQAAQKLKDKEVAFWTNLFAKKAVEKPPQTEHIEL

[1] = Metabolic stability in human intestinal microsomes; conditions: both, pooled human intestinal microsomes, pH 7.4
[2] = Metabolic stability in human liver microsomes; conditions: both, pooled human liver microsomes, pH 7.4
[3] = microsomes

Row | Compound | sensitivity to hydrolysis by recombinant CE-2 (recombinant CE-2) | sensitivity to hydrolysis by recombinant CE-1 (recombinant CE-1) | microsomal CLint at 1 μM [1] [µL/min/mg] | other results
1 | COC(=O)NCCCC(C)(Cc1ccccc1)C(=O)Oc1ccc(Oc2ccc(CN(Cc3ccccc3)c3cccc(NS(C)(=O)=O)c3C)cc2)cc1 (stereo not drawn) [Compound 8f] | moderate to extensive hydrolysis | completely resistant | 43 | 
2 | C#CCC(CCCNC(=O)OC)C(=O)OCCOc1ccc(Oc2ccc(CN(Cc3ccccc3)c3cccc(NS(C)(=O)=O)c3C)cc2)cc1 (stereo not drawn) [Compound 9c] | moderate to extensive hydrolysis | completely resistant | 1900 | 
3 | COC(=O)NCCCC(Cc1cn(Cc2ccccc2)nn1)C(=O)OCCOc1ccc(Oc2ccc(CN(Cc3ccccc3)c3cccc(NS(C)(=O)=O)c3C)cc2)cc1 (stereo not drawn) [Compound 9g] | moderate to extensive hydrolysis | completely resistant |  | 
4 | COC(=O)NCCCC(C)C(=O)Oc1ccc(Oc2ccc(CN(Cc3ccccc3)c3cccc(NS(C)(=O)=O)c3C)cc2)cc1 (stereo not drawn) [Compound 8a, 4-(4-((benzyl(2-methyl-3-(methylsulfonamido)phenyl)amino)methyl)phenoxy)phenyl 5-((methoxycarbonyl)amino)-2-methylpentanoate] |  |  | 2600 | microsomal CLint at 1 μM [2]: 1000 µL/min/mg
5 | COC(=O)NCCCC(C)(C)C(=O)Oc1ccc(Oc2ccc(CN(Cc3ccccc3)c3cccc(NS(C)(=O)=O)c3C)cc2)cc1 [Compound 8e, 4-(4-((benzyl(2-methyl-3-(methylsulfonamido)phenyl)amino)methyl)phenoxy)phenyl 5-((methoxycarbonyl)amino)-2,2-dimethylpentanoate] |  |  | 1000 | 
6 | 2-(4-(4((benzyl(2methyl3(methylsulfonamido)phenyl)amino)methyl)phenoxy)phenoxy)ethyl 2-isobutyl-5-((methoxycarbonyl)amino)pentanoate [Compound 8b] |  |  |  | half life (t1/2, min) HLM ([3]; human, pH 7.4): 17 min; CLint, in vitro HLM [3]: 82 µL/min/mg; CLint, in vitro HIM (microsomes): 220 µL/min/mg; half life (t1/2, min) HIM (pH 7.4): 6.3 min
7 | COC(=O)NCCCC(Cc1ccccc1)C(=O)Oc1ccc(Oc2ccc(CN(Cc3ccccc3)c3cccc(NS(C)(=O)=O)c3C)cc2)cc1 (stereo not drawn) [Compound 8d] |  |  | 140 | 
8 | C#CCC(CCCNC(=O)OC)C(=O)Oc1ccc(Oc2ccc(CN(Cc3ccccc3)c3cccc(NS(C)(=O)=O)c3C)cc2)cc1 (stereo not drawn) [Compound 8c] |  |  | 1700 | 
9 | COC(=O)NCCCC(Cc1cn(Cc2ccccc2)nn1)C(=O)Oc1ccc(Oc2ccc(CN(Cc3ccccc3)c3cccc(NS(C)(=O)=O)c3C)cc2)cc1 (stereo not drawn) [Compound 8g, 4-(4-((benzyl(2-methyl-3-(methylsulfonamido)phenyl)amino)methyl)phenoxy)phenyl 2-((1-benzyl-1H-1,2,3-triazol-4-yl)methyl)-5-((methoxycarbonyl)amino)pentanoate] | moderate to extensive hydrolysis | completely resistant | 480 | microsomal CLint at 1 μM [2]: 140 µL/min/mg
